Laboratory results taken from ChEMBL document CHEMBL4196211, “In Vitro Mechanistic Study of the Anti-inflammatory Activity of a Quinoline Isolated from Spondias pinnata Bark” (J Nat Prod, 2018).
Activity calls are given as the source filed them. The calls are words filed in the database; no cut-off is given here.

Experiments:
[1] = tested on: RAW264.7; assay: Antiinflammatory activity against mouse RAW264.7 cells assessed as inhibition of LPS-induced nitrite production at 20 uM pretreated for 6 hrs followed by LPS stimulation measured after 24 hrs by […]; format: functional, cell-based
[2] = tested on: RAW264.7; assay: Antiinflammatory activity against mouse RAW264.7 cells assessed as inhibition of LPS-induced TNFalpha production at 20 uM pretreated for 6 hrs followed by LPS stimulation measured after 24 hrs by ELISA; format: functional, cell-based
[3] = tested on: RAW264.7; assay: Antiinflammatory activity against mouse RAW264.7 cells assessed as inhibition of LPS-induced IL-6 production at 20 uM pretreated for 6 hrs followed by LPS stimulation measured after 24 hrs by ELISA; format: functional, cell-based
[4] = tested on: RAW264.7; assay: Antiinflammatory activity against mouse RAW264.7 cells assessed as inhibition of LPS-induced IL-1beta production at 20 uM pretreated for 6 hrs followed by LPS stimulation measured after 24 hrs by ELISA; format: functional, cell-based
[5] = tested on: RAW264.7; assay: Cytotoxicity against mouse RAW264.7 cells assessed as reduction in cell viability at 50 to 100 uM after 48 hrs by WST-1 assay; format: cell-based; details: raw264.7, 48 h
[6] = tested on: RAW264.7; assay: Antiinflammatory activity against mouse RAW264.7 cells assessed as inhibition of LPS-induced nitrite production at 100 uM pretreated for 6 hrs followed by LPS stimulation measured after 24 hrs by […]; format: functional, cell-based
[7] = tested on: RAW264.7; assay: Antiinflammatory activity against mouse RAW264.7 cells assessed as inhibition of LPS-induced TNFalpha production at 100 uM pretreated for 6 hrs followed by LPS stimulation measured after 24 hrs by ELISA; format: functional, cell-based
[8] = tested on: RAW264.7; assay: Antiinflammatory activity against mouse RAW264.7 cells assessed as inhibition of LPS-induced IL-6 production at 50 to 100 uM pretreated for 6 hrs followed by LPS stimulation measured after 24 hrs by ELISA; format: functional, cell-based
[9] = tested on: RAW264.7; assay: Antiinflammatory activity against mouse RAW264.7 cells assessed as inhibition of LPS-induced IL-1beta production at 50 to 100 uM pretreated for 6 hrs followed by LPS stimulation measured after 24 hrs by ELISA; format: functional, cell-based
[10] = tested on: RAW264.7; assay: Antiinflammatory activity against mouse RAW264.7 cells assessed as inhibition of LPS-induced intracellular ROS production at 50 to 100 uM pretreated for 12 hrs followed by LPS stimulation measured after 24 hrs by DCF-DA probe based flow cytometry; format: functional, cell-based
[11] = tested on: RAW264.7; assay: Inhibition of NF-kappaB in mouse RAW264.7 cells assessed as reduction in LPS-induced iNOS expression level pretreated for 6 hrs followed by LPS stimulation measured after 24 hrs by Western blot analysis; format: cell-based
[12] = tested on: RAW264.7; assay: Inhibition of NF-kappaB in mouse RAW264.7 cells assessed as LPS-induced iNOS expression level at 50 uM pretreated for 6 hrs followed by LPS stimulation measured after 24 hrs by Western blot analysis (reference value: 5.69); format: cell-based
[13] = tested on: RAW264.7; assay: Inhibition of NF-kappaB in mouse RAW264.7 cells assessed as LPS-induced iNOS expression level at 70 uM pretreated for 6 hrs followed by LPS stimulation measured after 24 hrs by Western blot analysis (reference value: 5.69); format: cell-based
[14] = tested on: RAW264.7; assay: Inhibition of NF-kappaB in mouse RAW264.7 cells assessed as LPS-induced iNOS expression level at 100 uM pretreated for 6 hrs followed by LPS stimulation measured after 24 hrs by Western blot analysis (reference value: 5.69); format: cell-based
[15] = tested on: RAW264.7; assay: Inhibition of NF-kappaB in mouse RAW264.7 cells assessed as LPS-induced COX-2 expression level at 50 uM pretreated for 6 hrs followed by LPS stimulation measured after 24 hrs by Western blot analysis (reference value: 2.02); format: cell-based
[16] = tested on: RAW264.7; assay: Inhibition of NF-kappaB in mouse RAW264.7 cells assessed as LPS-induced COX-2 expression level at 75 uM pretreated for 6 hrs followed by LPS stimulation measured after 24 hrs by Western blot analysis (reference value: 2.02); format: cell-based
[17] = tested on: RAW264.7; assay: Inhibition of NF-kappaB in mouse RAW264.7 cells assessed as LPS-induced COX-2 expression level at 100 uM pretreated for 6 hrs followed by LPS stimulation measured after 24 hrs by Western blot analysis (reference value: 2.02); format: cell-based
[18] = tested on: RAW264.7; assay: Effect on beta-actin expression level in LPS-induced mouse RAW264.7 cells at 50 uM pretreated for 6 hrs followed by LPS stimulation measured after 24 hrs by Western blot analysis (reference value: 0.95); format: ADME, cell-based; details: raw264.7, 24 h
[19] = tested on: RAW264.7; assay: Effect on beta-actin expression level in LPS-induced mouse RAW264.7 cells at 75 uM pretreated for 6 hrs followed by LPS stimulation measured after 24 hrs by Western blot analysis (reference value: 0.95); format: ADME, cell-based; details: raw264.7, 24 h
[20] = tested on: RAW264.7; assay: Effect on beta-actin expression level in LPS-induced mouse RAW264.7 cells at 100 uM pretreated for 6 hrs followed by LPS stimulation measured after 24 hrs by Western blot analysis (reference value: 0.95); format: ADME, cell-based; details: raw264.7, 24 h
[21] = tested on: RAW264.7; assay: Inhibition of NF-kappaB in mouse RAW264.7 cells assessed as reduction in LPS-induced iNOS mRNA level at 50 to 100 uM by qRT-PCR analysis; format: cell-based
[22] = tested on: RAW264.7; assay: Inhibition of NF-kappaB in mouse RAW264.7 cells assessed as reduction in LPS-induced COX-2 mRNA level at 50 to 100 uM by qRT-PCR analysis; format: cell-based
[23] = tested on: RAW264.7; assay: Inhibition of NF-kappaB in mouse RAW264.7 cells assessed as reduction in LPS-induced TNFalpha mRNA level at 50 to 100 uM by qRT-PCR analysis; format: cell-based
[24] = tested on: RAW264.7; assay: Inhibition of NF-kappaB in mouse RAW264.7 cells assessed as reduction in LPS-induced IL-1beta mRNA level at 50 to 100 uM by qRT-PCR analysis; format: cell-based
[25] = tested on: RAW264.7; assay: Inhibition of NF-kappaB in mouse RAW264.7 cells assessed as reduction in LPS-induced IL-6 mRNA level at 50 to 100 uM by qRT-PCR analysis; format: cell-based
[26] = tested on: RAW264.7; assay: Inhibition of NF-kappaB nuclear localization in LPS-induced mouse RAW264.7 cells at 50 to 100 uM pretreated for 6 hrs followed by LPS stimulation measured after 2 hrs by DAPI/FITC staining based laser scanning confocal microscopy; format: cell-based
[27] = tested on: RAW264.7; assay: Effect on LPS-induced I-kappaB level in mouse RAW264.7 cells at 50 uM pretreated for 6 hrs followed by LPS stimulation measured after 2 hrs by Western blot analysis (reference value: 0.44); format: cell-based
[28] = tested on: RAW264.7; assay: Effect on LPS-induced I-kappaB level in mouse RAW264.7 cells at 75 uM pretreated for 6 hrs followed by LPS stimulation measured after 2 hrs by Western blot analysis (reference value: 0.44); format: cell-based
[29] = tested on: RAW264.7; assay: Effect on LPS-induced I-kappaB level in mouse RAW264.7 cells at 100 uM pretreated for 6 hrs followed by LPS stimulation measured after 2 hrs by Western blot analysis (reference value: 0.44); format: cell-based
[30] = species on record: Mus musculus; assay: Effect on LPS-induced I-kappaB phosphorylation at 50 uM pretreated for 6 hrs followed by LPS stimulation measured after 2 hrs by Western blot analysis (reference value: 2.22)
[31] = species on record: Mus musculus; assay: Effect on LPS-induced I-kappaB phosphorylation at 75 uM pretreated for 6 hrs followed by LPS stimulation measured after 2 hrs by Western blot analysis (reference value: 2.22)
[32] = species on record: Mus musculus; assay: Effect on LPS-induced I-kappaB phosphorylation at 100 uM pretreated for 6 hrs followed by LPS stimulation measured after 2 hrs by Western blot analysis (reference value: 2.22)
[33] = tested on: RAW264.7; assay: Inhibition of NF-kappaB in mouse RAW264.7 cells assessed as LPS-induced cytosolic NF-kappaB level at 50 uM pretreated for 6 hrs followed by LPS stimulation measured after 2 hrs by Western blot analysis (reference value: 0.13); format: cell-based
[34] = tested on: RAW264.7; assay: Inhibition of NF-kappaB in mouse RAW264.7 cells assessed as LPS-induced cytosolic NF-kappaB level at 75 uM pretreated for 6 hrs followed by LPS stimulation measured after 2 hrs by Western blot analysis (reference value: 0.13); format: cell-based
[35] = tested on: RAW264.7; assay: Inhibition of NF-kappaB in mouse RAW264.7 cells assessed as LPS-induced cytosolic NF-kappaB level at 100 uM pretreated for 6 hrs followed by LPS stimulation measured after 2 hrs by Western blot analysis (reference value: 0.13); format: cell-based
[36] = tested on: RAW264.7; assay: Effect on beta-actin expression level in LPS-induced mouse RAW264.7 cells at 50 uM pretreated for 6 hrs followed by LPS stimulation measured after 2 hrs by Western blot analysis (reference value: 0.99); format: ADME, cell-based; details: raw264.7, 2 h
[37] = tested on: RAW264.7; assay: Effect on beta-actin expression level in LPS-induced mouse RAW264.7 cells at 75 uM pretreated for 6 hrs followed by LPS stimulation measured after 2 hrs by Western blot analysis (reference value: 0.99); format: ADME, cell-based; details: raw264.7, 2 h
[38] = tested on: RAW264.7; assay: Effect on beta-actin expression level in LPS-induced mouse RAW264.7 cells at 100 uM pretreated for 6 hrs followed by LPS stimulation measured after 2 hrs by Western blot analysis (reference value: 0.99); format: ADME, cell-based; details: raw264.7, 2 h
[39] = tested on: RAW264.7; assay: Inhibition of NF-kappaB in mouse RAW264.7 cells assessed as LPS-induced nuclear NF-kappaB level at 50 uM pretreated for 6 hrs followed by LPS stimulation measured after 2 hrs by Western blot analysis (reference value: 6.77); format: cell-based
[40] = tested on: RAW264.7; assay: Inhibition of NF-kappaB in mouse RAW264.7 cells assessed as LPS-induced nuclear NF-kappaB level at 75 uM pretreated for 6 hrs followed by LPS stimulation measured after 2 hrs by Western blot analysis (reference value: 6.77); format: cell-based
[41] = tested on: RAW264.7; assay: Inhibition of NF-kappaB in mouse RAW264.7 cells assessed as LPS-induced nuclear NF-kappaB level at 100 uM pretreated for 6 hrs followed by LPS stimulation measured after 2 hrs by Western blot analysis (reference value: 6.77); format: cell-based
[42] = tested on: RAW264.7; assay: Effect on tubulin expression level in LPS-induced mouse RAW264.7 cells at 50 uM pretreated for 6 hrs followed by LPS stimulation measured after 2 hrs by Western blot analysis (reference value: 1.02); format: ADME, cell-based; details: raw264.7, 2 h
[43] = tested on: RAW264.7; assay: Effect on tubulin expression level in LPS-induced mouse RAW264.7 cells at 75 uM pretreated for 6 hrs followed by LPS stimulation measured after 2 hrs by Western blot analysis (reference value: 1.02); format: ADME, cell-based; details: raw264.7, 2 h
[44] = tested on: RAW264.7; assay: Effect on tubulin expression level in LPS-induced mouse RAW264.7 cells at 100 uM pretreated for 6 hrs followed by LPS stimulation measured after 2 hrs by Western blot analysis (reference value: 1.02); format: ADME, cell-based; details: raw264.7, 2 h
[45] = tested on: RAW264.7; assay: Inhibition of LPS-induced I-kappaB phosphorylation in mouse RAW264.7 cells pretreated for 6 hrs followed by LPS stimulation measured after 2 hrs by Western blot analysis; format: cell-based

C[C@@H]1C[C@H]2[C@@H]3CCC4=CC(=O)C=C[C@]4(C)[C@@]3(F)[C@@H](O)C[C@]2(C)[C@@]1(O)C(=O)CO
inhibition [1]: Active
inhibition [2]: Active
inhibition [3]: Active
inhibition [4]: Active

COc1cc2ccc(=O)[nH]c2cc1O
Activity [5]: Non-Toxic
inhibition [6]: Active
inhibition [7]: Active
inhibition [8]: Active
inhibition [9]: Active
inhibition [10]: Active
inhibition [11]: Dose-dependent effect
fold change (FC) [12]: 3.4
fold change (FC) [13]: 1.98
fold change (FC) [14]: 1.04
fold change (FC) [15]: 1.72
fold change (FC) [16]: 1.29
fold change (FC) [17]: 1.02
fold change (FC) [18]: 0.95
fold change (FC) [19]: 1
fold change (FC) [20]: 0.96
inhibition [21]: Active
inhibition [22]: Active
inhibition [23]: Active
inhibition [24]: Active
inhibition [25]: Active
inhibition [26]: Active
fold change (FC) [27]: 0.64
fold change (FC) [28]: 0.85
fold change (FC) [29]: 0.99
fold change (FC) [30]: 1.86
fold change (FC) [31]: 1.11
fold change (FC) [32]: 1.05
fold change (FC) [33]: 0.3
fold change (FC) [34]: 0.91
fold change (FC) [35]: 0.97
fold change (FC) [36]: 0.94
fold change (FC) [37]: 0.96
fold change (FC) [38]: 1
fold change (FC) [39]: 5.25
fold change (FC) [40]: 3.89
fold change (FC) [41]: 1.56
fold change (FC) [42]: 0.93
fold change (FC) [43]: 0.96
fold change (FC) [44]: 1.01
inhibition [45]: Dose-dependent effect
